In ChEMBL document CHEMBL4507265 (2021):

How the values were obtained:
[1] = target: Bone morphogenetic protein receptor type-1B (Homo sapiens) (UniProt O00238); settings: Compound concentration 1000.0 nM
[2] = target: 5'-AMP-activated protein kinase catalytic subunit alpha-1 (Homo sapiens) (UniProt Q13131); settings: Compound concentration 1000.0 nM
[3] = target: Serine/threonine-protein kinase NLK (Homo sapiens) (UniProt Q9UBE8); settings: Compound concentration 1000.0 nM
[4] = target: cAMP-dependent protein kinase catalytic subunit beta (Homo sapiens) (UniProt P22694); settings: Compound concentration 1000.0 nM
[5] = target: Serine/threonine-protein kinase OSR1 (Homo sapiens) (UniProt O95747); settings: Compound concentration 1000.0 nM
[6] = target: Serine/threonine-protein kinase SIK3 (Homo sapiens) (UniProt Q9Y2K2); settings: Compound concentration 1000.0 nM
[7] = target: Tyrosine-protein kinase JAK1 (Homo sapiens) (UniProt P23458); settings: Compound concentration 1000.0 nM
[8] = target: Cyclin-dependent kinase 4 (Homo sapiens) (UniProt P11802); settings: Compound concentration 1000.0 nM
[9] = target: 5-hydroxytryptamine receptor 2C (Homo sapiens) (UniProt P28335); settings: Compound concentration 10.0 uM
[10] = tested on: Receptor-type tyrosine-protein kinase FLT3 (Homo sapiens), P36888 [UNDEFINED MUTATION]; settings: Compound concentration 1000.0 nM
[11] = target: Vascular endothelial growth factor receptor 1 (Homo sapiens) (UniProt P17948); settings: Compound concentration 1000.0 nM
[12] = target: Cyclin-dependent kinase 5 (Homo sapiens) (UniProt Q00535); settings: Compound concentration 1000.0 nM
[13] = target: Tyrosine-protein kinase Yes (Homo sapiens) (UniProt P07947); settings: Compound concentration 1000.0 nM
[14] = target: Mitogen-activated protein kinase 11 (Homo sapiens) (UniProt Q15759); settings: Compound concentration 1000.0 nM
[15] = target: Calcium/calmodulin-dependent protein kinase type 1B (Homo sapiens) (UniProt Q6P2M8); settings: Compound concentration 1000.0 nM
[16] = target: STE20-like serine/threonine-protein kinase (Homo sapiens) (UniProt Q9H2G2); settings: Compound concentration 1000.0 nM
[17] = target: Proto-oncogene tyrosine-protein kinase ROS (Homo sapiens) (UniProt P08922); settings: Compound concentration 1000.0 nM
[18] = target: Epithelial discoidin domain-containing receptor 1 (Homo sapiens) (UniProt Q08345); settings: Compound concentration 1000.0 nM
[19] = target: Vascular endothelial growth factor receptor 3 (Homo sapiens) (UniProt P35916); settings: Compound concentration 1000.0 nM
[20] = target: Muscle, skeletal receptor tyrosine-protein kinase (Homo sapiens) (UniProt O15146); settings: Compound concentration 1000.0 nM
[21] = target: 5-hydroxytryptamine receptor 1B (Homo sapiens) (UniProt P28222); settings: Compound concentration 10.0 uM
[22] = target: Myosin light chain kinase (Homo sapiens) (UniProt Q32MK0); settings: Compound concentration 1000.0 nM
[23] = target: Mitogen-activated protein kinase 15 (Homo sapiens) (UniProt Q8TD08); settings: Compound concentration 1000.0 nM
[24] = target: Cyclin-dependent kinase 17 (Homo sapiens) (UniProt Q00537); settings: Compound concentration 1000.0 nM
[25] = target: Hormonally up-regulated neu tumor-associated kinase (Homo sapiens) (UniProt P57058); settings: Compound concentration 1000.0 nM
[26] = target: Mitogen-activated protein kinase kinase kinase kinase 1 (Homo sapiens) (UniProt Q92918); settings: Compound concentration 1000.0 nM
[27] = target: Serine/threonine-protein kinase WNK3 (Homo sapiens) (UniProt Q9BYP7); settings: Compound concentration 1000.0 nM
[28] = target: Serine/threonine-protein kinase 25 (Homo sapiens) (UniProt O00506); settings: Compound concentration 1000.0 nM
[29] = target: Membrane-associated tyrosine- and threonine-specific cdc2-inhibitory kinase (Homo sapiens) (UniProt Q99640); settings: Compound concentration 1000.0 nM
[30] = target: Calcium/calmodulin-dependent protein kinase type 1D (Homo sapiens) (UniProt Q8IU85); settings: Compound concentration 1000.0 nM
[31] = target: Serine/threonine-protein kinase D2 (Homo sapiens) (UniProt Q9BZL6); settings: Compound concentration 1000.0 nM
[32] = target: Protein kinase C theta type (Homo sapiens) (UniProt Q04759); settings: Compound concentration 1000.0 nM
[33] = tested on: Epidermal growth factor receptor (Homo sapiens), P00533 [UNDEFINED MUTATION]; settings: Compound concentration 1000.0 nM
[34] = target: Serine/threonine-protein kinase RIO2 (Homo sapiens) (UniProt Q9BVS4); settings: Compound concentration 1000.0 nM
[35] = target: Mitogen-activated protein kinase 10 (Homo sapiens) (UniProt P53779); settings: Compound concentration 1000.0 nM
[36] = target: Casein kinase II subunit alpha' (Homo sapiens) (UniProt P19784); settings: Compound concentration 1000.0 nM
[37] = target: Protein kinase C epsilon type (Homo sapiens) (UniProt Q02156); settings: Compound concentration 1000.0 nM
[38] = target: Serine/threonine-protein kinase SIK2 (Homo sapiens) (UniProt Q9H0K1); settings: Compound concentration 1000.0 nM
[39] = target: Serine/threonine-protein kinase VRK2 (Homo sapiens) (UniProt Q86Y07); settings: Compound concentration 1000.0 nM
[40] = target: Protein-tyrosine kinase 6 (Homo sapiens) (UniProt Q13882); settings: Compound concentration 1000.0 nM
[41] = target: Interleukin-1 receptor-associated kinase 3 (Homo sapiens) (UniProt Q9Y616); settings: Compound concentration 1000.0 nM
[42] = target: Mitogen-activated protein kinase kinase kinase 15 (Homo sapiens) (UniProt Q6ZN16); settings: Compound concentration 1000.0 nM
[43] = target: Mitogen-activated protein kinase kinase kinase kinase 2 (Homo sapiens) (UniProt Q12851); settings: Compound concentration 1000.0 nM
[44] = target: Non-receptor tyrosine-protein kinase TYK2 (Homo sapiens) (UniProt P29597); settings: Compound concentration 1000.0 nM
[45] = target: Serine/threonine-protein kinase 26 (Homo sapiens) (UniProt Q9P289); settings: Compound concentration 1000.0 nM

Sequence of 5-hydroxytryptamine receptor 1B (Homo sapiens) (P28222 whole entry): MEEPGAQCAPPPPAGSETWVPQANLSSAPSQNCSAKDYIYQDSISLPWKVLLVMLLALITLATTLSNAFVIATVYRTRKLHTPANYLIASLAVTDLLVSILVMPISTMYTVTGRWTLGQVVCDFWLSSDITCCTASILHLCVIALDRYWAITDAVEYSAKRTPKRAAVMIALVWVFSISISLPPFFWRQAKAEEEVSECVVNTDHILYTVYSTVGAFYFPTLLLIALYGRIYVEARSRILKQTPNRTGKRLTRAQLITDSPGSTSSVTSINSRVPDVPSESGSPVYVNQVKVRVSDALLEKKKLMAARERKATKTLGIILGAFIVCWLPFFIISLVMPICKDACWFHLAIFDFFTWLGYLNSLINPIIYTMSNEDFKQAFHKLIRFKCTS
Sequence of STE20-like serine/threonine-protein kinase (Homo sapiens) (Q9H2G2 whole entry, looked up): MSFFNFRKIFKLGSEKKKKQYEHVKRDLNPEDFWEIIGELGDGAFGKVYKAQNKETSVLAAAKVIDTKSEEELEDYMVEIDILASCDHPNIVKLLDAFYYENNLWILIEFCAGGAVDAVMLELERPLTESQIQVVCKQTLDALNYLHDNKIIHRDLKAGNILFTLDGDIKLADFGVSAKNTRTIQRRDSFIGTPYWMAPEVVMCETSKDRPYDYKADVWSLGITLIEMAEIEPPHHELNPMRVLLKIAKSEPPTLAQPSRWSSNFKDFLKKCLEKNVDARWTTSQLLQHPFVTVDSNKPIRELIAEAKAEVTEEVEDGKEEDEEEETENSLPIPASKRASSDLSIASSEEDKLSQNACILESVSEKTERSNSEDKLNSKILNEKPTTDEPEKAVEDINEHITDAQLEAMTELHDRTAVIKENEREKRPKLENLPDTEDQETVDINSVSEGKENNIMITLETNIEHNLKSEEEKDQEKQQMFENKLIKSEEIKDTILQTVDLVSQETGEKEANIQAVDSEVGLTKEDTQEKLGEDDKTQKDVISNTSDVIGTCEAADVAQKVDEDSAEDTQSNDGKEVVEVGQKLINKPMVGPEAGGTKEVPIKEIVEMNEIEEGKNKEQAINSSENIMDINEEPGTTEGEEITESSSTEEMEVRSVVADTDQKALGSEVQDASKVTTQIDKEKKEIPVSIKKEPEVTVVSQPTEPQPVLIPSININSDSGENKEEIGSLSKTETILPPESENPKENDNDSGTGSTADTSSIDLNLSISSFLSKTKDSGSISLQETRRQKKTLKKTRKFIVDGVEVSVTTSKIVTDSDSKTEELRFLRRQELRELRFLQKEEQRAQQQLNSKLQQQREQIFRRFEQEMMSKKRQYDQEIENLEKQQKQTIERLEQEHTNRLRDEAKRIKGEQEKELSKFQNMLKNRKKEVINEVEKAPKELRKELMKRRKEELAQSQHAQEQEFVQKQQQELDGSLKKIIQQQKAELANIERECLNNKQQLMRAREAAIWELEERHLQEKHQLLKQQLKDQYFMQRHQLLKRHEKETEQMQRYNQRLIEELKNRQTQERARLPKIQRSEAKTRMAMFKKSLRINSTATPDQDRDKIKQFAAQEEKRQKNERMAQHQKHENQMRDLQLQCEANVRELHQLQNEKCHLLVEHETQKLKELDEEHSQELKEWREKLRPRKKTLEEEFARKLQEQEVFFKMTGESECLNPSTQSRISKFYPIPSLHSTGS
Sequence of Bone morphogenetic protein receptor type-1B (Homo sapiens) (O00238 whole entry): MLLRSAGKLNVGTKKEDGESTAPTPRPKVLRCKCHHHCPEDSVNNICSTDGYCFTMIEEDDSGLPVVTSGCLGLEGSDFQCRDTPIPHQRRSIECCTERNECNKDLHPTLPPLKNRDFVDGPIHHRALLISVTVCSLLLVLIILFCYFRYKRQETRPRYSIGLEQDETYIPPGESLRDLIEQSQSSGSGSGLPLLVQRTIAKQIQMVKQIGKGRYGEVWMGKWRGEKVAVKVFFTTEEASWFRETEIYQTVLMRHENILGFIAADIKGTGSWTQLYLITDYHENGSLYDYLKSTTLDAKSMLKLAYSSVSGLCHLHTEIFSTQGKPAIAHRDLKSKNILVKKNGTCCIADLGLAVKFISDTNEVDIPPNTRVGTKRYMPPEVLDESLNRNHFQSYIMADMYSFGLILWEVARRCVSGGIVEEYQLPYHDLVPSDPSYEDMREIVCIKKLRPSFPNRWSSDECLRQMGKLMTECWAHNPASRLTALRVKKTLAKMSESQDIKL
Sequence of Protein kinase C theta type (Homo sapiens) (Q04759 whole entry, looked up): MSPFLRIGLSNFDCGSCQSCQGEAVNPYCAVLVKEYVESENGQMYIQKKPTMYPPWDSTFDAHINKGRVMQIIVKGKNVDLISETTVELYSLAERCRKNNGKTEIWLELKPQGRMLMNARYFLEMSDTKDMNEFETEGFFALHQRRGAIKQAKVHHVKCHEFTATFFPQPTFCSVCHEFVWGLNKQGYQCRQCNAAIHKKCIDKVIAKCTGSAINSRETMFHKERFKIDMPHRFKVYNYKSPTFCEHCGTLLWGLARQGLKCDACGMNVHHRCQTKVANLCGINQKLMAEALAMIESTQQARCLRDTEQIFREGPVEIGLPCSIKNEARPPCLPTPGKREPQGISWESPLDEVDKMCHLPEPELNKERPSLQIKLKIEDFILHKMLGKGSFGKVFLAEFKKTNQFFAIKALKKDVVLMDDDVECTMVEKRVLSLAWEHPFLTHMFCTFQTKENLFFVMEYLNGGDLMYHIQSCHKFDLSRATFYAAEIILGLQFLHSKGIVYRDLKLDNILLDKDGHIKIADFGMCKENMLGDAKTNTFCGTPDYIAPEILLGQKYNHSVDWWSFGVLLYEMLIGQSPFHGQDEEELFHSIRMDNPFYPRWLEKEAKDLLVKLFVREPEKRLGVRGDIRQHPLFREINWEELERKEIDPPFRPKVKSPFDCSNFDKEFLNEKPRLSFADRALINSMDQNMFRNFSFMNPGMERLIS
Sequence of Non-receptor tyrosine-protein kinase TYK2 (Homo sapiens) (P29597 whole entry): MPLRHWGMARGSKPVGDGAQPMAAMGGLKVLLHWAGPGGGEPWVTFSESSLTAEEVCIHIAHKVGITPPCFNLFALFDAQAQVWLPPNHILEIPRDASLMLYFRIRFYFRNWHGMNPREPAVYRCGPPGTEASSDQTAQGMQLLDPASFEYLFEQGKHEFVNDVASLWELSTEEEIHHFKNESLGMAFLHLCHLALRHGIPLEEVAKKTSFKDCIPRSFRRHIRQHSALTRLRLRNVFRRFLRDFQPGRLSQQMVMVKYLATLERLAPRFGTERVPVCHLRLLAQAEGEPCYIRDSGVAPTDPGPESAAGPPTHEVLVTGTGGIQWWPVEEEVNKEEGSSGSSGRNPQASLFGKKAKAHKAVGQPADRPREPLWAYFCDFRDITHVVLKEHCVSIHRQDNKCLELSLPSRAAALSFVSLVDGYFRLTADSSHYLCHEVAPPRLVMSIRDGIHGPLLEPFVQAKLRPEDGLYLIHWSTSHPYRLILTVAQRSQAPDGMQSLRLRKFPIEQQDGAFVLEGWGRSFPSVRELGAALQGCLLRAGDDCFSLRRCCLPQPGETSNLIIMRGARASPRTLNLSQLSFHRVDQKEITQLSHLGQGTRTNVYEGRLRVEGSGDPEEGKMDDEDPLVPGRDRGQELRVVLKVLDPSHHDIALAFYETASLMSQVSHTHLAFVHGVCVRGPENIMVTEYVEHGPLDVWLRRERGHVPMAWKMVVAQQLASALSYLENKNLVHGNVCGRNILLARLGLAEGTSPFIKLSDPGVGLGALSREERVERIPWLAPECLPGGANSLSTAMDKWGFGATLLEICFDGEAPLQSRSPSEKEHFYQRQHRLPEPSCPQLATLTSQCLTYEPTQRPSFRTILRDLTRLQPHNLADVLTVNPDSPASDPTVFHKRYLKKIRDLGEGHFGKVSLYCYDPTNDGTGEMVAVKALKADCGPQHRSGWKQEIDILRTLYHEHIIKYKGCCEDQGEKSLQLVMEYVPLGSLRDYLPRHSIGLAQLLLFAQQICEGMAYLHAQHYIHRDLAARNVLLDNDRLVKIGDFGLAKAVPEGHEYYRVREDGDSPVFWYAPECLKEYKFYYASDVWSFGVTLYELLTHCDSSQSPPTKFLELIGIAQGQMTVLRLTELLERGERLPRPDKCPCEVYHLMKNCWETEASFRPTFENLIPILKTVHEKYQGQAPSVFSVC
Sequence of Mitogen-activated protein kinase 11 (Homo sapiens) (Q15759 whole entry): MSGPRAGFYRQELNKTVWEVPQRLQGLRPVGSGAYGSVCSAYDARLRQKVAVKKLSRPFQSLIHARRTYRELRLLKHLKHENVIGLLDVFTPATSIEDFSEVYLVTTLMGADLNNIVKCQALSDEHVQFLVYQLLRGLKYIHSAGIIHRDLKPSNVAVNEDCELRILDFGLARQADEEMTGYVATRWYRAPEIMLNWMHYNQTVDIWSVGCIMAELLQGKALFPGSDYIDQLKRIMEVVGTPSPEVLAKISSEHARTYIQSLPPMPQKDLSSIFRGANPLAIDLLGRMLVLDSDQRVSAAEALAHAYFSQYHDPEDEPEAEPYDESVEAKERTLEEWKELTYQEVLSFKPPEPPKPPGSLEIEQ
Sequence of Serine/threonine-protein kinase OSR1 (Homo sapiens) (O95747 2-527 limits assumed): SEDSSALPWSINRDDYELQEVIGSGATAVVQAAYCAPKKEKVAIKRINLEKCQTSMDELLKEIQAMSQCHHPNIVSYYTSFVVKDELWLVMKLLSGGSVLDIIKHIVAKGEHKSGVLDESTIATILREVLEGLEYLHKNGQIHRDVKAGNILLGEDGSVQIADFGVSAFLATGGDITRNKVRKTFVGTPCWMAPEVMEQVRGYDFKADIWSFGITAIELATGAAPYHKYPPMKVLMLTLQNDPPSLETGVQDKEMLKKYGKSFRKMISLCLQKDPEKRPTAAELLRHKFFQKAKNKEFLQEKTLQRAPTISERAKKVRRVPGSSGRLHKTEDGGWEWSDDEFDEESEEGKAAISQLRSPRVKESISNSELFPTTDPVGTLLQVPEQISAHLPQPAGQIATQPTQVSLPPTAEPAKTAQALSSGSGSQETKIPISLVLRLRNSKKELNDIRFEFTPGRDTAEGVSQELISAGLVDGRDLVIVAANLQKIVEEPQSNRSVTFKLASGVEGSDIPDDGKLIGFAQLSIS

NS(=O)(=O)c1cc(NC(=O)C2(c3ccccc3Cl)CC2)ccc1Oc1cccc(Cl)c1 [BAY-207]
inactive: residual activity [1] 81% | residual activity [2] 80% | residual activity [3] 68% | residual activity [4] 88% | residual activity [5] 100% | residual activity [6] 87% | residual activity [7] 90% | residual activity [8] 100% | inhibition [9] 19.5% | residual activity [10] 100% | residual activity [11] 100% | residual activity [12] 74% | residual activity [13] 90% | residual activity [14] 68% | residual activity [15] 100% | residual activity [16] 79% | residual activity [17] 82% | residual activity [18] 83% | residual activity [19] 67% | residual activity [20] 77% | inhibition [21] 4.81% | residual activity [22] 89% | residual activity [23] 65% | residual activity [24] 88% | residual activity [25] 75% | residual activity [26] 66% | residual activity [27] 78% | residual activity [28] 100% | residual activity [29] 70% | residual activity [30] 97% | residual activity [31] 87% | residual activity [32] 88% | residual activity [33] 96% | residual activity [34] 89% | residual activity [35] 100% | residual activity [36] 100% | residual activity [37] 65% | residual activity [38] 100% | residual activity [39] 100% | residual activity [40] 99% | residual activity [41] 75% | residual activity [42] 86% | residual activity [43] 100% | residual activity [44] 100% | residual activity [45] 100%

NS(=O)(=O)c1cc(NC(=O)Cc2ccccc2)ccc1Oc1cccc(Cl)c1 [BAY-1797]
inactive: residual activity [1] 94% | residual activity [2] 71% | residual activity [3] 100% | residual activity [4] 100% | residual activity [5] 78% | residual activity [6] 87% | residual activity [7] 99% | residual activity [8] 88% | residual activity [10] 79% | residual activity [11] 80% | residual activity [12] 61% | residual activity [13] 86% | residual activity [14] 100% | residual activity [15] 83% | residual activity [16] 66% | residual activity [17] 81% | residual activity [18] 94% | residual activity [19] 79% | residual activity [20] 100% | inhibition [21] -2.93% | residual activity [22] 89% | residual activity [23] 68% | residual activity [24] 88% | residual activity [25] 84% | residual activity [26] 91% | residual activity [27] 78% | residual activity [28] 88% | residual activity [29] 96% | residual activity [30] 100% | residual activity [31] 85% | residual activity [32] 74% | residual activity [33] 86% | residual activity [34] 100% | residual activity [35] 89% | residual activity [36] 100% | residual activity [37] 87% | residual activity [38] 100% | residual activity [39] 100% | residual activity [40] 96% | residual activity [41] 87% | residual activity [42] 100% | residual activity [43] 84% | residual activity [44] 90% | residual activity [45] 99%
active: inhibition [9] 55.4%
